Three compounds from US20120053208A1 (THE OHIO STATE UNIVERSITY RESEARCH FOUNDATION, priority 2009, published 2012) can be followed below.

In data set [1] the test system is STAT3 dependent luciferase activity. In words: STAT3-dependent transcriptional luciferase activity (pLucTKS3). It is filed as cell-based, human. The following applies: MDA-MB-231 cells stably transfected with pLucTKS3; 1-10 μmol/L, 24 hours. The protocol: Cells were incubated with the compounds for 24 h and were then harvested for luciferase activity analysis.
Expression of luciferase is thus contingent upon the phosphorylation and activation of STAT3.

Data set [2] relates to downstream targets of STAT3. Description: Expression of downstream targets of STAT3 by immunoblot. In kind it is cell-based, human. Conditions: both breast cancer cell lines (MDA-MB-231, MDA-MB-468).
From the text: (§1) The cell extract were processed for immunoblotting using specific antibodies. GAPDH was used as loading control.
(§2) The cell extracts were processed for immunoblotting using specific antibodies. GAPDH was used as loading control.
(§3) GAPDH was used as loading control.
as §2

Data set [3] deals with STAT3 DNA binding activity. In words: STAT3 DNA binding activity (STAT3 Transcription Factor Kit). In kind it is cell-based, human. Conditions: MDA-MB-231 cells; 10 μM, 24 h. The protocol:
Cells were treated with the compounds or DMSO (control) for 24 h. The cell extract were analyzed for STAT3 binding activity using STAT3 Transcription Factor Kit.
(§4) Cells were treated with FLLL31 (10 μM) or DSMO (control) for 24 h. The cell extracts were analyzed for STAT3 DNA binding activity using STAT3 and STAT1 Transcription Factor Kits.

Data set [4] concerns normal human pancreatic duct epithelial cells, normal human lung fibroblasts, normal human mammary epithelial cells. In words: Apoptosis (cleaved caspase-3 immunoblot) in normal human cells. The following applies: HPDE, HMEC and normal human lung fibroblasts; 24 h.
From the text: as §2

The test system of data set [5] is eight cancer cell lines with elevated levels of STAT3 phosphorylation. Description: Anti-proliferative activity in a panel of eight cancer cell lines. In kind it is cell-based, human.
Data set [6] concerns cells with persistent expression of p-STAT3. In words: Apoptosis (cleaved caspase-3 immunoblot) in cancer cells. In kind it is cell-based, human. The following applies: 24 h.
From the text: as §1, §2, §3, §2, §2

Data set [7] deals with STAT1 DNA binding activity. Description: STAT1 DNA binding activity (STAT1 Transcription Factor Kit). It is filed as cell-based, human. The following applies: MDA-MB-231 cells; 10 μM, 24 h. The method, then: as §4
The subject of data set [8] is ERK1/2, PKC-δ, mTOR, p70S6K, and AKT phosphorylation. Description: Phosphorylation of other kinases by immunoblot in breast cancer cells. Conditions: MDA-MB-231 and MDA-MB-468 cells, 24 h. It is filed as cell-based, human.
From the text: as §1, §2

Another data set deals with STAT3 phosphorylation. Description: STAT3 phosphorylation by immunoblot in cancer cells with persistently activated STAT3. In kind it is cell-based, human. The following applies: 24 h.
From the text: as §1, §2, §3, §2

The target in the next data set is JAK2 kinase (Homo sapiens, UniProt O60674). In words: JAK2 kinase assay (HTScan JAK2 kinase assay kit). Conditions: at 10 μM.
Chain of JAK2 kinase (O60674 whole entry): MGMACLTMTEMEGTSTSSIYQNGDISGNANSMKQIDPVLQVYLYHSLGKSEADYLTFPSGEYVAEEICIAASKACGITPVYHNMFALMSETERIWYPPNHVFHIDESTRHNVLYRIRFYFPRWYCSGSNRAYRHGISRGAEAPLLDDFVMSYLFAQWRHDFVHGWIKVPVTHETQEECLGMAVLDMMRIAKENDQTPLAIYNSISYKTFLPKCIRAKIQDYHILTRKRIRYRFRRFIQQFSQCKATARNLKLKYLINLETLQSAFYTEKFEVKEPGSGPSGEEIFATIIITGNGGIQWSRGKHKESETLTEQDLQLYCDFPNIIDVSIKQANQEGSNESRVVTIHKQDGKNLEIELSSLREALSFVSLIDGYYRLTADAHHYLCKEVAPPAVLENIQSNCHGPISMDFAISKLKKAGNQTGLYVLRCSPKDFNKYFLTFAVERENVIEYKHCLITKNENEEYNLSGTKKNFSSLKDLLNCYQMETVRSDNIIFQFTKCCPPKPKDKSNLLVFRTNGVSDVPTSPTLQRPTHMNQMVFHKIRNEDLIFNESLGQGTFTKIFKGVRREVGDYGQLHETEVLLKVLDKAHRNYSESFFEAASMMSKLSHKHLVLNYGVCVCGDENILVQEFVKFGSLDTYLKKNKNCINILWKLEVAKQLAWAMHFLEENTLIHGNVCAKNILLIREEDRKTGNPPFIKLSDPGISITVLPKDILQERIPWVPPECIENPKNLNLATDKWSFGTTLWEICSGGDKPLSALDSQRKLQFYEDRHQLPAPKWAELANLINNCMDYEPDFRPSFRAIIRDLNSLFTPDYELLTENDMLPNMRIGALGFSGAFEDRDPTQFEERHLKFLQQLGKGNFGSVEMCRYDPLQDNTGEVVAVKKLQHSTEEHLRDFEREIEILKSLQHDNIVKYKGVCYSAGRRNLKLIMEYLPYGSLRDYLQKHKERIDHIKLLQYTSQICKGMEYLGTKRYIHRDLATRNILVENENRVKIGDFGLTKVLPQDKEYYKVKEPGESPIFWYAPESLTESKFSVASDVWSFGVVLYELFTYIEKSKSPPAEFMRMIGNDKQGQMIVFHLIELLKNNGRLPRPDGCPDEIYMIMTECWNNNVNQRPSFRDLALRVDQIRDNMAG

Description for JAK2 kinase: JAK2 kinase assay was performed using a HTScan JAK2 kinase assay kit.

Take `COc1ccc(/C=C/C(=O)C(C)(C)C(=O)/C=C/c2ccc(OC)c(OC)c2)cc1OC` [FLLL31]: the “inhibition of STAT3 dependent luciferase activity” value in data set [1] is listed as “dose-dependent inhibition”. The “down-regulation of cyclin D1” value in data set [2] is “down-regulation of cyclin D1”. In addition, in [3], the “inhibition of STAT3 DNA binding activity” value is reported as “statistically significant inhibition”. Also, in data set [3], the “potency of STAT3 DNA binding inhibition relative to curcumin” value is recorded as “significantly more potent than curcumin”. The “induction of apoptosis in normal human cells” value in data set [4] was “no apoptosis induction”. In addition, the “IC50, anti-proliferative activity” value in [5] (SUM-159, ZR-75-1, BXPC-3, HPAC, PANC-1, SW1990, U373, U266) was “submicromolar”. The “anti-proliferative potency relative to WP1066, Stattic, S31-201, SD1029 and AG490” value in data set [5] (panel of eight cancer cell lines) is “more potent than the other inhibitors”. Moreover, in data set [6] (MDA-MB-231 and MDA-MB-468 breast cancer cells), the “induction of apoptosis (cleavages of caspase-3)” value is given as “induction of apoptosis”. In data set [6] (PANC-1, BXPC-3 and SK-BR-3 cells, 5 or 10 μM), the “induction of apoptosis (cleaved caspase-3)” value is reported as “induce apoptosis”. In [7], the “selectivity: STAT3 versus STAT1 DNA binding activity” value is listed as “inhibit STAT3 but not STAT1 DNA binding activity”. In [8], the “effects on ERK1/2, PKC-δ, mTOR, p70S6K, and AKT phosphorylation” value is given as “little effects”. Moreover, the “inhibition of STAT3 phosphorylation” value is “inhibited STAT3 phosphorylation” with STAT3 phosphorylation (MDA-MB-231 breast cancer cells, 2.5 and 5 μM); “inhibited STAT3 phosphorylation” in the data set with STAT3 phosphorylation (MDA-MB-468 breast cancer cells, 2.5, 5 and 10 μM).
Consider `C[C@H](NC(=O)/C(C#N)=C/c1cccc(Br)n1)c1ccccc1` [WP1066, reference compound], for which the induction of apoptosis result in [6] (U373 cells, 5 μM) is “induce apoptosis”. The “inhibition of STAT3 phosphorylation” value in the data set on STAT3 phosphorylation (U373 human glioblastoma cells, 5 μM) was “inhibit STAT3 phosphorylation”.
Consider `COc1cc(C=CC(=O)CC(=O)C=Cc2ccc(O)c(OC)c2)ccc1O` [curcumin, 1,7-bis(4-hydroxy-3-methoxyphenyl)-1,6-heptadien-3,5-dione, reference compound], for which the “inhibition of STAT3 DNA binding activity” value in data set [3] was “inhibit STAT3 DNA binding activity”. In addition, the JAK2 inhibition entry at JAK2 kinase is listed as “did not show any JAK2 inhibition”.
